Data as given in ChEMBL document CHEMBL3627664, “Towards the evaluation in an animal disease model: Fluorinated 17β-HSD1 inhibitors showing strong activity towards both the human and the rat enzyme” (Eur J Med Chem, 2015).

target: T1, 17-beta-hydroxysteroid dehydrogenase type 1 (Homo sapiens, UniProt P14061)
T1 sequence (P14061 whole entry): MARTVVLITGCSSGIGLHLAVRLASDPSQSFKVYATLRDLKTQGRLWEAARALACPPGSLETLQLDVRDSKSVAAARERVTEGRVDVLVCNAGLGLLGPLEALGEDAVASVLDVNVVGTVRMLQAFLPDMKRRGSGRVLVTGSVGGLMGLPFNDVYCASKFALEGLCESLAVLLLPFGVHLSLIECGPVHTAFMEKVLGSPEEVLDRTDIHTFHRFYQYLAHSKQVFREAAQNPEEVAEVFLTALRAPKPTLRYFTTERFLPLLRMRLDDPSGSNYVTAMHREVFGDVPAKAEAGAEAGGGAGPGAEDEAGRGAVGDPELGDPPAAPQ

Compared with COc1cccc(S(=O)(=O)Nc2cccc(-c3ccc(C(=O)c4cccc(O)c4)s3)c2)c1, N#Cc1cccc(S(=O)(=O)Nc2cccc(-c3ccc(C(=O)c4cccc(O)c4)s3)c2)c1 is 1.5-fold lower in IC50: 35 nM for the first, 23 nM for the second. The second is the more potent here.

O=C(c1ccc(C(F)(F)F)c(O)c1)c1ccc(-c2cccc(O)c2)s1 and Cc1ccc(C(=O)c2ccc(-c3cccc(O)c3)s2)cc1O are within 1.5-fold of each other in IC50: 38 nM for the first, 46 nM for the second.

Going from N#Cc1ccc(S(=O)(=O)Nc2cccc(-c3ccc(C(=O)c4cccc(O)c4)s3)c2)cc1 to Cc1ccc(S(=O)(=O)Nc2cccc(-c3ccc(C(=O)c4cccc(O)c4)s3)c2)cc1, the IC50 falls from 56 nM to 12 nM (4.7-fold).

N#Cc1cccc(S(=O)(=O)Nc2cccc(-c3c(O)ccc4cc(-c5cccc(O)c5)ccc34)c2)c1 and Cc1ccccc1S(=O)(=O)Nc1cccc(-c2ccc(C(=O)c3cccc(O)c3)s2)c1 are within 1.5-fold of each other in IC50: 21 nM for the first, 17 nM for the second.

Going from O=C(Nc1cccc(-c2ccc(C(=O)c3cccc(O)c3)s2)c1)c1cccc(O)c1 to O=C(c1cccc(O)c1)c1ccc(-c2cccc(O)c2)s1, the IC50 rises from 33 nM to 69 nM (2.1-fold).

Compared with O=C(c1ccc(F)c(O)c1)c1cc2cc(O)ccc2s1, O=C(c1cccc(O)c1)c1cc2ccc(O)cc2s1 is 7.4-fold lower in IC50: 89 nM for the first, 12 nM for the second. The second is the more potent here.

In the case of O=C(c1cccc(O)c1)c1ccc(-c2ccc(NS(=O)(=O)c3ccc(Br)cc3OC(F)(F)F)cc2)s1, the IC50 is reported as 169 nM.
